Here are results for 15 compounds from PMC6367750 (Future Medicinal Chemistry, 2018).

Where two headings read alike, the source gives them in different places.

Assay [1] deals with MV4–11. Description: Antiproliferative activity, CellTiter-Blue. The class given is cell-based. The note with it: for AML cell growth inhibition: SAR discussion of Table 1. For orientation: The colour change of resazurin is a common sign of viable cells or microbes.
Assay [2] has as its target T1, FLT3-ITD (Homo sapiens, UniProt P36888, ITD).
T1 sequence (P36888 564-993): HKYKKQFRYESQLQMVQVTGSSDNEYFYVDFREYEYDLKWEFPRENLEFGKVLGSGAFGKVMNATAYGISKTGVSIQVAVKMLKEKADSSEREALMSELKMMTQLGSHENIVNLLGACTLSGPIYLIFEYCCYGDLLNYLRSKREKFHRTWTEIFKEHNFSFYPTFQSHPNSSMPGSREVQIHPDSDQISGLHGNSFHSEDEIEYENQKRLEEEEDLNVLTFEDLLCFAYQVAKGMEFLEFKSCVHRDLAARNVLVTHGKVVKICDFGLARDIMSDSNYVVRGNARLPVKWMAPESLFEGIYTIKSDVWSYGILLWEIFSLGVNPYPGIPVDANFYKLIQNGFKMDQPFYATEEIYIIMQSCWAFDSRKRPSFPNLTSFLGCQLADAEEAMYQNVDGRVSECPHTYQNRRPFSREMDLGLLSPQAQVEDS
The experiment in a line: FLT3-ITD kinase inhibition, ADP-Glo kinase assay. Format: biochemical. The note with it: read-out: %FLT3 inhibition FLT3-ITD.

The subject of a further assay is Molm13. The note with it: cited from earlier work.
Assay [3] relates to Molm13-res (FLT3 (ITD, D835Y)). The experiment in a line: Antiproliferative activity, CellTiter-Blue. Format: cell-based. The note with it: 72 h.
A further assay deals with Molm14. The experiment in a line: Antiproliferative activity, CellTiter-Blue. Format: cell-based.
Assay [4] concerns the target T2, FLT3-ITD (Homo sapiens, UniProt P36888).
T2 sequence (P36888 564-993): T1 sequence (P36888 564-993)
Description: FLT3-ITD kinase inhibition, ADP-Glo kinase assay. The settings on record: SAR discussion of Table 1. The class given is biochemical.

The test system of assay [5] is MV4–11. The note with it: cited from earlier work.
Another assay deals with ABL1-phosphorylated (Homo sapiens, UniProt P00519). The note with it: read-out: Kd ABL1-phosphorylated; KdELECT; ref Zimmerman et al. [28]; cited from earlier work.
The subject of another assay is FLT3 D835Y. The settings on record: read-out: IC50 FLT3 D835Y; cited from earlier work.
A further assay deals with ABL1-nonphosphorylated (Homo sapiens, UniProt P00519). The note with it: read-out: Kd ABL1-nonphosphorylated; KdELECT; ref Zimmerman et al. [28]; cited from earlier work.
Another assay deals with c-Kit. The note with it: read-out: IC50 c-Kit; cited from earlier work.
A further assay deals with T3, FLT3 (Homo sapiens, UniProt P36888).
T3 sequence (P36888 27-993): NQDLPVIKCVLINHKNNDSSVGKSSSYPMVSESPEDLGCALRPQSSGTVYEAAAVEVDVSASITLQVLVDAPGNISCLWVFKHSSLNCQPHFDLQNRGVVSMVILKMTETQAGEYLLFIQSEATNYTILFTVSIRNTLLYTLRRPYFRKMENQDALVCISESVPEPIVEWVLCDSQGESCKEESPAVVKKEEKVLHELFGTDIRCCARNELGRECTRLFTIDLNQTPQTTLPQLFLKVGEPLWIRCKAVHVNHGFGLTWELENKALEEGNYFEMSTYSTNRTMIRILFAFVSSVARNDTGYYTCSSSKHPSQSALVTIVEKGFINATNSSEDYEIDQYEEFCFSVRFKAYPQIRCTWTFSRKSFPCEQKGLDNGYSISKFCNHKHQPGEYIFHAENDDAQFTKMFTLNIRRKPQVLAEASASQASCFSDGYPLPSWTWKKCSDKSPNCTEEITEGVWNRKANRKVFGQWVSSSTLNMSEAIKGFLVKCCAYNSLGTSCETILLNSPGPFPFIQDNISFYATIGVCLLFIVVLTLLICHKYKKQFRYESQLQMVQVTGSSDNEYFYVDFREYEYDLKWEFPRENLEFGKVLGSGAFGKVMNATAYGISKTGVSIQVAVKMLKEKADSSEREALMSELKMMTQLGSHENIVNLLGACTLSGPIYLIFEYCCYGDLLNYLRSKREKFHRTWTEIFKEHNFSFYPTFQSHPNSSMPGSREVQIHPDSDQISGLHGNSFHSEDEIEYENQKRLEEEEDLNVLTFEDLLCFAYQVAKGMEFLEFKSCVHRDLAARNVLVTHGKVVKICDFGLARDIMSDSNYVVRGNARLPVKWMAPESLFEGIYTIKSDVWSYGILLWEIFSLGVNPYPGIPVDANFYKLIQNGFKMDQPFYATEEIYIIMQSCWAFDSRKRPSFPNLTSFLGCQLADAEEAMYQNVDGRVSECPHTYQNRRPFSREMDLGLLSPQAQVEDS
Description: DiscoverX ScanEdge kinase profiling. The class given is binding. The settings on record: read-out: percent inhibition FLT3.

For another assay, the system named is TOPK mRNA. The experiment in a line: Real-time PCR of TOPK mRNA in MV4–11 cells. Format: cell-based. The note with it: 24 h. (Quantitative PCR measures a nucleic acid by following its amplification.)
A further assay concerns the target JAK3 (Homo sapiens, UniProt P52333). The experiment in a line: DiscoverX ScanEdge kinase profiling. The class given is binding. The note with it: read-out: percent inhibition JAK3.
A further assay deals with MKNK2 (Homo sapiens, UniProt Q9HBH9). Description: DiscoverX ScanEdge kinase profiling. The note with it: read-out: percent inhibition MKNK2. The class given is binding.
In the next assay the target is JAK2 (Homo sapiens, UniProt O60674). Description: DiscoverX ScanEdge kinase profiling. The note with it: read-out: percent inhibition JAK2. Format: binding.
In assay [6] the test system is K562, NOMO-1, HL60 and MOLT4. The experiment in a line: Antiproliferative activity, non-FLT3-driven leukemia cell lines. Format: cell-based. The note with it: 72 h, read-out: IC50 range over non-FLT3-driven leukemia cell lines.
Assay [7] has as its system MV4–11. The experiment in a line: Cell cycle analysis. The class given is cell-based. The note with it: MV4–11, 24 h.
The next assay has as its system TOPK. Description: Western blot of TOPK protein in MV4–11 cells. The class given is cell-based. For orientation: Immunoblotting shows a protein as a band on a membrane.
The next assay relates to phospho-STAT5. Description: Western blot of phospho-STAT5 in MV4–11 cells. Format: cell-based.
[8] abbreviates: Homo sapiens, MV4-11, 72 h, read-out: IC50 MV4–11, 72 h.
Where [9] appears, read: read-out: IC50 Molm13-res, 72 h.
Setting [10] is: Homo sapiens, MOLM-14, 72 h, read-out: IC50 Molm14, 72 h.

Chain of MKNK2 (Q9HBH9 whole entry): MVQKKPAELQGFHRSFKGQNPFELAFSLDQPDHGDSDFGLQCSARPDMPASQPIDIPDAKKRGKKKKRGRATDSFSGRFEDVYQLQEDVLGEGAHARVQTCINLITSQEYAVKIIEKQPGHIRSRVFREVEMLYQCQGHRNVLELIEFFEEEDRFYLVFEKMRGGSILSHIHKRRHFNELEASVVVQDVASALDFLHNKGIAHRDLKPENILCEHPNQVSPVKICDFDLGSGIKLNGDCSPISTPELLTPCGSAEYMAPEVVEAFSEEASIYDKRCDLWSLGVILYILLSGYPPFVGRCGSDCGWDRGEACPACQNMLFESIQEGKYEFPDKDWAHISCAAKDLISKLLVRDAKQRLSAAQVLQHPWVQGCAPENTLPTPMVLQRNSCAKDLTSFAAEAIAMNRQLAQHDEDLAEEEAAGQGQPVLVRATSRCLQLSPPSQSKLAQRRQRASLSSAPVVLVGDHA
Chain of JAK3 (P52333 813-1124 limits assumed): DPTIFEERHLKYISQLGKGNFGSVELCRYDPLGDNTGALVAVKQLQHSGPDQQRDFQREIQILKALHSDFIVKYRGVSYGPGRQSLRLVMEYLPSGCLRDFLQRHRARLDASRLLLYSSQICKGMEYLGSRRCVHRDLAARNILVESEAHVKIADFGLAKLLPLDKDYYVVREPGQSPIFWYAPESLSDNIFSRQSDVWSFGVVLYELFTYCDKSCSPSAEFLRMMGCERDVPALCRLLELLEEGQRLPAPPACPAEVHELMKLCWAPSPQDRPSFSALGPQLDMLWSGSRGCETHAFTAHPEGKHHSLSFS
Chain of ABL1-phosphorylated (P00519 whole entry): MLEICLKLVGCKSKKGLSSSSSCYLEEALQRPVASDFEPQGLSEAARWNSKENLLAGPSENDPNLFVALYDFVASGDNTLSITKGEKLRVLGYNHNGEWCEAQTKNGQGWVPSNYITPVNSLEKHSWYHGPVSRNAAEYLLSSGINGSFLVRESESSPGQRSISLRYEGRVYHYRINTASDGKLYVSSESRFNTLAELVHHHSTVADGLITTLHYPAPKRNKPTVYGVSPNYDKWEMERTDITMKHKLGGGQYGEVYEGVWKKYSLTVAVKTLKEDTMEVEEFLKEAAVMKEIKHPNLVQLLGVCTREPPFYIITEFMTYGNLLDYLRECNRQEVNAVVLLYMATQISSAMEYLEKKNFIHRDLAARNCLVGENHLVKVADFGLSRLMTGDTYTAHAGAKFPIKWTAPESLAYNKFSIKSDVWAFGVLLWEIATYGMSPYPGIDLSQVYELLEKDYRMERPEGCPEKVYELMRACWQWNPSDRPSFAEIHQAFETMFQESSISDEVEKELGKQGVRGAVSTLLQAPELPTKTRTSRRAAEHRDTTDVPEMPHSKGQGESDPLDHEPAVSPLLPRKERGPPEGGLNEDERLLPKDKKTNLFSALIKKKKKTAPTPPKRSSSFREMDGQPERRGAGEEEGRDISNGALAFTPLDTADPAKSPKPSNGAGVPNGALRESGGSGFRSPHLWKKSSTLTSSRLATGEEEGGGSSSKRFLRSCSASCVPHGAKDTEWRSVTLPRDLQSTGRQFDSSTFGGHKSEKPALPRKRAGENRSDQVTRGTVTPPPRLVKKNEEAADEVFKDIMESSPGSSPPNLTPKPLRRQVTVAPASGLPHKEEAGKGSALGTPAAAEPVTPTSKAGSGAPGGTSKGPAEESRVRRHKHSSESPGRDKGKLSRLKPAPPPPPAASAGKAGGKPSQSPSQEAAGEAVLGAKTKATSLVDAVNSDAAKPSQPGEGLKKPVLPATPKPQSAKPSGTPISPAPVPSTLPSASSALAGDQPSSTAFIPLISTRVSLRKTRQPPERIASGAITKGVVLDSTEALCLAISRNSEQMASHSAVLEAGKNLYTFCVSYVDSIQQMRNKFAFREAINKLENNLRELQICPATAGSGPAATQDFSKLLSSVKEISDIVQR
Chain of ABL1-nonphosphorylated (P00519 whole entry): as above
Chain of JAK2 (O60674 840-1132 limits assumed): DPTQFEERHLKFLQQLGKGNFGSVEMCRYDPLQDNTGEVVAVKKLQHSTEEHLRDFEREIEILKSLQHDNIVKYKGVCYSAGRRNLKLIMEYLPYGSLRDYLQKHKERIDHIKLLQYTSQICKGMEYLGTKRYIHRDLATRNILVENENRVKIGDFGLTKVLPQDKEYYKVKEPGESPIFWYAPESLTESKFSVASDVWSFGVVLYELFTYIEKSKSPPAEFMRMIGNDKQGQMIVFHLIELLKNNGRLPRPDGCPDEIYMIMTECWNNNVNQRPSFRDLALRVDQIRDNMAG

The term IC50 denotes the point on the concentration scale where inhibition reaches its midpoint. As a reminder, the inhibition is the drop in the measured response relative to a control, in per cent. Regarding `c1ccc(-c2n[nH]cc2-c2nc3ccc4[nH]ncc4c3c3c2CCCC3)cc1` [Compound 14], the half-maximal inhibitory concentration (IC50) in the assay on MV4–11 [1] (setting [8]) was 1450 nM. Further, at FLT3-ITD [2], the inhibition at 0.1 µM worked out at 26%.
For `C[C@H]1CC[C@H](n2c3cnccc3c3cnc(Nc4ccc5c(n4)CCN(C(=O)CO)C5)nc32)CC1` [AMG 925], the “effect on cell cycle” value in the assay on Molm13 is reported as “induce arrest in the G0/1 phase”.
For the compound `Cc1n[nH]cc1-c1nc2ccc3[nH]ncc3c2c2c1CCCC2` [Compound 9], the IC50 in the assay with MV4–11 [1] (setting [8]) was determined as 61.5 nM; in assay [3] (setting [9]) it was 86.7 nM; with Molm14 (setting [10]), 64.1 nM. Further, in the assay on MV4–11 [1], the “AML cell growth inhibition” value was “potent inhibitors of AML proliferation”. Besides, the inhibition at 0.1 µM at FLT3-ITD [2] is 54%.
Take `FC(F)(F)c1n[nH]cc1-c1nc2ccc3[nH]ccc3c2c2c1CCCC2` [Compound 19]: the IC50 in the assay on MV4–11 [1] (setting [8]) stood at 898 nM. Besides, the “AML cell growth inhibition” value in the assay on MV4–11 [1] was “did not inhibit FLT3 enzymatic activity or AML cell growth”. Also, the inhibition at 0.1 µM at FLT3-ITD [2] was 8%. In addition, the “FLT3 enzymatic inhibition” value at FLT3-ITD [4] is recorded as “did not inhibit FLT3 enzymatic activity”.
Turning to `CO[C@@H]1[C@H](N(C)C(=O)c2ccccc2)C[C@H]2O[C@]1(C)n1c3ccccc3c3c4c(c5c6ccccc6n2c5c31)C(=O)NC4` [PKC412 (midostaurin), midostaurin], the “effect on cell cycle” value with MV4–11 [5] and in the assay with Molm13 was “did not affect cell cycle pattern” in each case.
In the case of `c1cncc(-c2n[nH]cc2-c2nc3ccc4[nH]ncc4c3c3c2CCCC3)c1` [Compound 15], the IC50 in the assay on MV4–11 [1] (setting [8]) is 1300 nM. Further, the “AML cell growth inhibition” value in the assay on MV4–11 [1] was “inactive compounds”. Besides, the inhibition at 0.1 µM at FLT3-ITD [2] turned out to be 6%.
As for `OCCn1cc(-c2nc3ccc4[nH]ncc4c3c3c2CCCC3)cn1` [Compound 20], the IC50 in the assay with MV4–11 [1] (setting [8]) came out at 1390 nM. The “AML cell growth inhibition” value in the assay on MV4–11 [1] is “inactive compounds”. Moreover, the inhibition at 0.1 µM at FLT3-ITD [2] came out at 27%.
Taken in the same sequence, the figures for `NC1CCc2c(c(-c3c[nH]nc3C(F)(F)F)nc3ccc4[nH]ncc4c23)C1` (stereo not drawn) [Compound 7] were 132 nM, “less active” and 71%.
Usually Kd stands for a measure of binding affinity in units of concentration. Regarding `CC1(COc2ccc3c(c2)ncn3-c2ccc3cccc(N4CCC(N)CC4)c3n2)COC1` [Crenolanib, crenolanib], the values for the Kd at ABL1-phosphorylated and at ABL1-nonphosphorylated were 430 nM and 140 nM, respectively. Besides, in the assay on FLT3 D835Y, the IC50 is 6.9 nM.
In the case of `Nc1ncc(-c2ccncc2)nc1Nc1ccc2[nH]ccc2c1` [AKN-028], the “effect on cell cycle” value in the assay on MV4–11 [5] was “induce arrest in the G0/1 phase”.
For `CCc1nc(C(N)=O)c(Nc2ccc(N3CCC(N4CCN(C)CC4)CC3)c(OC)c2)nc1NC1CCOCC1` [gilteritinib], the IC50 in the assay with c-Kit is 230 nM.
In the case of `FC(F)(F)c1n[nH]cc1-c1nc2ccc3[nH]ncc3c2c2c1CCCC2` [HSD1169], the inhibition at 0.5 µM on FLT3, at JAK3, on MKNK2 and at JAK2 was over 90% in each case. For the same compound, in the assay with TOPK mRNA, the “TOPK mRNA level” value is “downregulation of TOPK mRNA”. In addition, the IC50 is 5 nM in the assay on MV4–11 [1] (setting [8]); 5.4 nM with MV4–11 [1] (read-out: IC50 MV4–11, 72 h, listed as 4 (HSD1169)); 5 nM in [3] (setting [9]); 5.1 nM in assay [3] (read-out: IC50 Molm13-res, listed as 4 (HSD1169)); 620 to 1860 nM in [6]; 5 nM in the assay on Molm14 (setting [10]). Moreover, in the assay with Molm14 (read-out: IC50 Molm14, 72 h, listed as 4 (HSD1169)), the IC50 was 4.9 nM. The “AML cell growth inhibition” value in the assay with MV4–11 [1] is given as “potent inhibitors of AML proliferation”. Further, the inhibition at 0.1 µM on FLT3-ITD [2] came out at 80%. Besides, in the assay with MV4–11 [7], the “effect on cell cycle” value is “dose-dependent increase in the percentage of cells in the G0/1 phase”. Further, the “TOPK protein level (western blot, words)” value with TOPK was “reduction of TOPK protein in a dose-dependent manner”. Moreover, in the assay on phospho-STAT5, the “phosphorylation of STAT5 (western blot, words)” value is given as “inhibited the phosphorylation of STAT5”.
As for `c1cc(-c2n[nH]cc2-c2nc3ccc4[nH]ncc4c3c3c2CCCC3)cs1` [Compound 17], in the assay with MV4–11 [1] (setting [8]), the IC50 was found to be 772 nM. In addition, the “AML cell growth inhibition” value in the assay with MV4–11 [1] is “inactive compounds”. In addition, the inhibition at 0.1 µM on FLT3-ITD [2] was 19%.
`FC(F)(F)c1cc(-c2nc3ccc4[nH]ncc4c3c3c2CCCC3)n[nH]1` [Compound 13]: the IC50 in the assay on MV4–11 [1] (setting [8]) was over 5000 nM. Besides, in the assay with MV4–11 [1], the “AML cell growth inhibition” value was “inactive even at 1000 nM”. The inhibition at 0.1 µM at FLT3-ITD [2] was determined as 5%.
In the same order, the values of `c1[nH]nnc1-c1nc2ccc3[nH]ncc3c2c2c1CCCC2` [Compound 12] are 154 nM, “not as active as HSD1169” and 56%.
